Several values for one entry are separate records, joined by “and”; a condition that tells them apart may be missing. Equal values may be shown once.
Tests used:
[1] = target: T1, Mitogen-activated protein kinase 14 (Homo sapiens, UniProt Q16539); test: Unactivated p38alpha cascade assay; conditions: pH 7.5; 25 °C
Experimental: Binding of inhibitors to unactivated p38a that leads to decreasedphosphorylation of p38alpha by MKK6 was determined by measuringthe activated p38alpha activity in the assay mixture with andwithout inhibitors. In a 20-lL reaction mixture containing 50 mMHepes, pH 7.5, 1 mM EGTA, 10 mM MgCl2, 0.01% (w / v) Brij35 and 200 µM DTT, unactivated p38a (2 nM) was preincubatedwith inhibitors at various concentrations for 30 min at roomtemperature. Ten microliters of 1 mM ATP and 1 nM active MKK6were then introduced to initiate p38a activation. The reaction wasrun at room temperature for 15 min. The mixture was thenimmediately diluted 100-fold so that the inhibitor concentrationwas reduced by 2 orders of magnitude and residual inhibitoryeffect was minimized. The reaction product, active p38alpha, wasthen calculated based on its catalytic activity to activate MK2 asdescribed in Active p38a cascade assay section.

[2] = target: T1, Mitogen-activated protein kinase 14; test: Active p38alpha cascade assay; conditions: pH 7.5; 25 °C
Experimental: The reaction was run for 15 min atroom temperature. […] Under such

T1 sequence (Q16539 whole entry): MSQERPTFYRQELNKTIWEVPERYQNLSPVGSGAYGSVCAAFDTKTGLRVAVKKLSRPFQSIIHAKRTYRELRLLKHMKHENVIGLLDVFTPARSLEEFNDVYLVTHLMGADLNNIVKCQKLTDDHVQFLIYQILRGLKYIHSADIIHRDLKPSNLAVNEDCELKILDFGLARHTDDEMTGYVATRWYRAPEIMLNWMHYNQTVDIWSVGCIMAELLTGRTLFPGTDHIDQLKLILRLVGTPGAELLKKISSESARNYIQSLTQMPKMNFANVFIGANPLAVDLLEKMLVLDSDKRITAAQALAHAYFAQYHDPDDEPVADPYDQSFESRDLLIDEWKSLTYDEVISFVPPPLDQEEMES

| IC50 [1] | IC50 [2] | SMILES |
| --- | --- | --- |
| 0.035 µM | 1.22 µM | Cc1ccc(C(=O)[n+]2cccc(C(=O)NCc3ccc(-n4nc(C(C)(C)C)cc4NC(=O)Nc4ccccc4)cc3)c2)cc1C(=O)O [(11b) BIRB796] |
| 0.008 µM | 0.933 µM | CC(=O)c1cc(C(=O)NCc2ccc(-n3nc(C(C)(C)C)cc3NC(=O)Nc3cccc4ccccc34)cc2)ccc1C [(5a) BIRB796] |
| 0.011 µM | 0.691 µM | Cc1ccc(C(=O)NCc2ccc(-n3nc(C(C)(C)C)cc3NC(=O)Nc3cccc4ccccc34)cc2)cc1C(=O)O [(7a) BIRB796] |
| 0.036 µM | 1.13 µM | Cc1ccc(C(=O)NC(O)(NCc2ccc(-n3nc(C(C)(C)C)cc3NC(=O)Nc3cccc4ccccc34)cc2)C2CCCC2)cc1C(=O)O (stereo not given) [(7b) BIRB796] |
| – | 1.9 µM and > 12.5 µM | Brc1ccc(-c2c[nH]c(-c3cc4ccccc4cn3)n2)cc1 [PF-00215937] |
| 0.006 µM | 0.376 µM | Cc1ccc(C(=O)NC(C)(O)NCc2ccc(-n3nc(C(C)(C)C)cc3NC(=O)Nc3ccccc3)cc2)cc1C(=O)O (stereo not given) [(9a) BIRB796] |
| 0.011 µM and 0.025 µM | 0.393 µM and 0.664 µM | Cc1cc(C(=O)NCc2ccc(-n3nc(C(C)(C)C)cc3NC(=O)Nc3cccc4ccccc34)cc2)ccc1C(=O)O [(8a) BIRB796] |
| 0.32 µM | 2.95 µM | Brc1ccc(-c2c[nH]c(-c3cc4ccccc4cn3)n2)cc1 [PF-04764755] |
| 1.03 µM | 2.1 µM | O=S1(=O)N=c2ccc3c4c(c5ccccc5c(c24)O1)OS(=O)(=O)N=3 [CP-232880] |
| 6 µM | > 12.5 µM | NCCC(=O)c1cccc(Oc2cccc(C(=O)CCN)c2)c1 [UK-146015] |
| 0.011 µM | 1.08 µM | Cc1ccc(C(=O)NC(=O)NCc2ccc(-n3nc(C(C)(C)C)cc3NC(=O)Nc3ccccc3)cc2)cc1C(=O)O [(11a) BIRB796] |
| 0.053 µM | 1.59 µM | Cc1cc(C(=O)NC(=O)NCc2ccc(-n3nc(C(C)(C)C)cc3NC(=O)Nc3ccccc3)cc2)ccc1C(=O)O [(12a) BIRB796] |
| 2.3 µM | > 12.5 µM | Clc1cccc(-c2c[nH]c(-c3cc4ccccc4cn3)n2)c1 [PF-00240292] |
| 0.062 µM | 1.47 µM | Cc1cc(C(=O)[n+]2cccc(C(=O)NCc3ccc(-n4nc(C(C)(C)C)cc4NC(=O)Nc4ccccc4)cc3)c2)ccc1C(=O)O [(12b) BIRB796] |
| 0.022 µM | 0.81 µM | Cc1ccc(C(=O)NC(O)(NC(=O)NCc2ccc(-n3nc(C(C)(C)C)cc3NC(=O)Nc3ccccc3)cc2)C2CCCC2)cc1C(=O)O (stereo not given) [(9b) BIRB796] |
| 0.026 µM | 1.11 µM | CC(=O)c1cc(C(=O)NC(O)(NCc2ccc(-n3nc(C(C)(C)C)cc3NC(=O)Nc3cccc4ccccc34)cc2)C2CCCC2)ccc1C (stereo not given) [(5b) BIRB796] |
| 0.11 µM | 0.0018 µM | Clc1ccc(-c2c[nH]c(-c3cc4ccccc4cn3)n2)cc1 [PF-00215924] |
| 0.007 µM | 0.261 µM | Cc1cc(C(=O)NC(C)(O)NCc2ccc(-n3nc(C(C)(C)C)cc3NC(=O)Nc3ccccc3)cc2)ccc1C(=O)O (stereo not given) [(10a) BIRB796] |

From BindingDB's records for doi:10.1111/j.1747-0285.2009.00884.x (Pfizer, 2009)
